Consider five compounds from PMC5271370, “A High-Content Assay Enables the Automated Screening and Identification of Small Molecules with Specific ALDH1A1-Inhibitory Activity” (PLoS ONE, 2017).

Experiment [1] concerns breast cancer cells that express ALDH1A3. Details: method as in PMID 27592281. The conditions noted are these: flow cytometry, at concentrations >10 μM; cited from earlier work.
A further experiment has as its system ALDH3A1. Particulars: reported ALDH target 3A1; read-out: Reported Biochemical IC50, ALDH3A1; cited from earlier work.
Another experiment relates to LN-229 cells. The experiment is described as follows: 1,536-well high-content imaging ALDEFLUOR assay, LN-229. The experiment is classed as cell-based, human. The method, then:
We next sought to test if the fully automated high-content assay could be used to detect ALDH1A1-specific inhibitors.
The ALDEFLUOR kit was purchased from […] Technologies (Vancouver, Canada; #01700). Cells (5 μL) were dispensed into black, optical quality (cyclic olefin copolymer) clear bottom, medium binding TC treated 1,536-well plates (Aurora Microplates, Whitefish MT) using a Multidrop Combi dispenser (ThermoFisher) and incubated overnight (37°C, 5% CO2, 85% RH). Media was subsequently removed by centrifuging plates upside down using a plate adaptor to collect media. A solution of BAAA substrate ([…] Technologies) and Hoechst 33342 (ThermoFisher, final concentrations of 500 nM and 0.5 nM, respectively) in ALDEFLUOR buffer ([…] Technologies #01700) was dispensed onto cells using a Multidrop Combi followed by immediate transfer (23 nL) of compound or control solutions using a Wako Pin-tool (final percentage of DMSO in the cell plates was 0.5%). Unless otherwise noted, all compounds were assayed as 16-point dilutions spanning a final concentration range of 1.4 nM to […]. […] Cells were incubated for 30 minutes or the indicated amount of time at 37°C, 5% CO2, 85% RH to allow the conversion of BAAA into BAA. Supernatant was subsequently removed by centrifugation as described above, then ALDEFLUOR buffer (3 μl) was dispensed by Multidrop Combi before imaging on an IN Cell 2200 (GE Healthcare).
The above assay was modified for an online robotic screening system. After cell plating and overnight incubation, 4 μL of media were removed using a 64-tip metal aspirator head on a Wako aspirator station, leaving 1 μL remaining in the well, followed by a 4 μL dispense of BAAA and Hoechst 33342 in ALDEFLUOR buffer, for a final concentration of 500 nM and 0.5 nM, respectively. Immediately following the dispense, 23 nL of compound or control solutions were transferred using a Wako Pin-tool. […] Plates were then immediately read on the IN Cell 2200 as described below.
For images captured on the IN Cell 2200 widefield automated microscope, a 10x 0.45 NA Plan Apo objective lens was used to capture the entire well of the 1,536-well plate using standard DAPI (390/18x, 432/48m) and FITC (475/28x, 525/48m) filter sets at 50 msec and 100 msec exposures, respectively. Images were subsequently analyzed using IN Cell Investigator v1.6.2 analysis software’s canned Multi-Target Analysis algorithm (GE Healthcare). […]
The same controls were also used for the calculation of the Z’ factor for each assay. The Z’ factor, a measure of assay quality control, was determined as previously described. […] All concentration–response curves were fitted as before and IC50 were calculated with the GraphPad Prism software.

For the next experiment, the system named is ALDH1A2. Particulars: reported ALDH target 1A2; read-out: Reported Biochemical IC50, ALDH1A2; cited from earlier work.
The next experiment relates to ALDH1A3. Particulars: reported ALDH target 1A3; read-out: Reported Biochemical IC50, ALDH1A3; cited from earlier work.

Like-named read-outs stand apart in the source and are kept apart here.

Consider `CC(C)=CCCC(C)=CC=O` (mixture of isomers) [Citral], for which the “Reduction of ALDEFLUOR fluorescence” value in experiment [1] is “significantly reduced ALDEFLUOR fluorescence”.

On to `COc1ccc(C(=O)CCN(C)C)cc1F` [Aldi-2], for which, in the experiment with ALDH3A1, the IC50 (as a rule, the concentration that gives 50% inhibition) was 1900 nM.

With `CC(C)(C)c1ccc(S(=O)(=O)/C=C/C#N)cc1` [Bay-11-7085], in the experiment on ALDH3A1, the IC50 was 100 nM.

On to `CCN(CC)c1ccc(C=O)cc1` [DEAB, 4-N,N-diethylaminobenzaldehyde], for which the half-maximal inhibitory concentration (IC50) was approximately 3480 nM with LN-229 cells (1,000 cells/well, 500 nM substrate, 30 minutes, read-out: ALDEFLUOR IC50 LN-229); 1200 nM in the experiment with ALDH1A2; 3000 nM in the experiment on ALDH1A3. The “Reduction of ALDEFLUOR fluorescence” value in experiment [1] was “significantly reduced ALDEFLUOR fluorescence”.

As for `CC(C)N(C(=O)CCl)c1ccccc1` [Propachlor], the IC50 amounted to 16000 nM with LN-229 cells (Homo sapiens, LN-229, read-out: ALDEFLUOR IC50 LN229, retest of screen hits, 11-point dose response 0.77 nM to 45.8 μM) and 16100 nM in the experiment on LN-229 cells (read-out: ALDEFLUOR IC50 LN229, retest of screen hits, 11-point dose response 0.77 nM to 45.8 μM).
